Laboratory results as given in PMC7504104, “Dietary Intake of Rosmarinic Acid Increases Serum Inhibitory Activity in Amyloid A Aggregation and Suppresses Deposition in the Organs of Mice” (International Journal of Molecular Sciences, 2020).

Target: T1, recombinant mouse SAA 1.1 (mSAA) (Mus musculus, UniProt P05366)
T1 construct: gene Saa1; cDNA in pET-15b, expressed in E. coli Rosetta, Ni Sepharose purified
T1 sequence (P05366 20-122): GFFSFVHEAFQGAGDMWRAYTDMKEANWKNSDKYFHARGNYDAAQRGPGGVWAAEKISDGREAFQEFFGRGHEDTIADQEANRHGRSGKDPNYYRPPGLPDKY
Assay: quantum-dot fluorescence imaging of amyloid aggregation inhibition (MSHTS)
Assay type: biochemical

EC50: 33.2 ± 2.19 µM
Compound: O=C(/C=C/c1ccc(O)c(O)c1)O[C@H](Cc1ccc(O)c(O)c1)C(=O)O [RA, rosmarinic acid]
